The experiment relates to BV-2 (mouse microglia) cells. The experiment in a line: progranulin secretion from BV-2 cells, mouse progranulin ELISA of conditioned media. The following applies: BV-2 cells, 16 hours incubation, 8-point curves starting at 10 μM. The class given is cell-based. How it is done: BV-2 cells are split the day before plating into a 96 well plate format at approximately 80%. Cells should be plated the day before and allowed for 1 hour attachment period and for 16 hour incubation. […] Standard ELISA kits to measure PGRN are available from vendors such as Adipogen, R&D, and Biovendor.
Compound potency was determined by measuring progranulin secretion from BV-2 (mouse microglia) cells. BV-2 cells were grown in RPMI with 2 mM L-glutamine supplemented with 10% fetal bovine serum. On the day of the assay, cells were plated in 96-well plates at a density of 30,000 cells/well in RPMI (Roswell Park Memorial Institute media)/L-glutamine supplemented with 2% Fetal clone serum II (plating media) and left to adhere for 1 hour. Following attachment to the plate, media was replaced with treatment (8-point curves in half-log dilutions starting at 10 μM) in plating media and incubated for 16 hours. Secreted progranulin was measured from a 1:10 dilution of the conditioned media using the R&D Systems mouse progranulin ELISA kit (cat #DY2557) and following the manufacturer's instructions.
For orientation: ELISA stands for enzyme-linked immunosorbent assay.

[1] abbreviates: Mus musculus, assay run v1, read-out: PRGN v1 (EC50, progranulin secretion).
[2] abbreviates: Mus musculus, assay run v2 (same protocol, different assay), read-out: PRGN v2 (EC50, progranulin secretion).
[3] abbreviates: assay run v1, read-out: PRGN v1 (EC50, progranulin secretion).
The mark [4] stands for this setting: assay run v2 (same protocol, different assay), read-out: PRGN v2 (EC50, progranulin secretion).
[5] abbreviates: Mus musculus, BV-2, 16 h, assay run v2 (same protocol, different assay), read-out: PRGN v2 (EC50, progranulin secretion).
Where [6] appears, read: Mus musculus, BV-2, 16 h, assay run v1, read-out: PRGN v1 (EC50, progranulin secretion).

The structures appear in SMILES notation. Like-named read-outs stand apart in the source and are kept apart here. Some results are limits rather than exact numbers.

As a reminder, the EC50 is the concentration at which the effect is half-maximal. In the case of `O=C(O[C@@H]1CN2CCC1CC2)N1CCc2ccccc2[C@@H]1c1ccc(F)cc1` [Compound 1004, (S)—((S)-quinuclidin-3-yl) 1-(4-fluorophenyl)-3,4-dihydroisoquinoline-2(1H)-carboxylate], the EC50 runs as follows: under setting [1], 0.36 µM; under setting [2], 0.43 µM.

For the molecule `O=C(O[C@@H]1CN2CCC1CC2)N1CCc2ccccc2[C@@H]1c1ccc2scnc2c1` [Compound 1034], the EC50 reads like this: under setting [3], greater than 10 µM; under setting [4], 5.77 µM.

For `O=C(O[C@@H]1CN2CCC1CC2)N1CCc2ccccc2[C@@H]1c1ccc(-n2ccnc2)cc1` [Compound 1006], the 50% effective concentration (EC50) under setting [1] came out at 5.7 µM.

As for `COc1ccc([C@@H]2c3ccccc3CCN2C(=O)O[C@@H]2CN3CCC2CC3)cn1` [Compound 1029], the EC50 is greater than 10 µM under setting [3] and greater than 10 µM under setting [4].

As to `O=S(=O)(C[C@H]1CN2CCC1CC2)N1CCc2ccccc2[C@H]1c1ccccc1` [Compound 1143], the EC50 under setting [5] is greater than 10 µM.

On to `O=C(N[C@@H]1CN2CCC1CC2)N1CCc2ccccc2[C@H]1c1ccc(-n2ccnn2)cc1` [Compound 1100], for which the EC50 under setting [6] was greater than 10 µM.

`O=C1CCCN1c1ccc([C@@H]2c3ccccc3CCN2C(=O)O[C@@H]2CN3CCC2CC3)cc1` [Compound 1017]: the EC50 was greater than 10 µM under setting [1] and greater than 10 µM under setting [2].

For the molecule `O=C(N[C@@H]1CN2CCC1CC2)N1CCc2ccccc2[C@@H]1c1ccc(-n2ccnc2)cc1` [Compound 1095], the EC50 under setting [6] is greater than 10 µM.

As for `O=C(O[C@@H]1CN2CCC1CC2)N1CCc2ccccc2[C@H]1c1ccc2ncsc2c1` [Compound 1033], the half-maximal effective concentration (EC50) under setting [3] was greater than 10 µM and the EC50 under setting [4] is greater than 10 µM.

For `O=C(O[C@@H]1CN2CCC1CC2)N1CCc2ccccc2[C@H]1c1ccc(-n2cnnc2)cc1` [Compound 1043], under setting [2], the EC50 was greater than 10 µM.

On to `CN(C(=O)N1CCc2ccccc2[C@@H]1c1ccc(F)cc1)[C@H]1CN2CCC1CC2` [Compound 1131], for which the EC50 under setting [5] was greater than 10 µM.

As for `O=C(O[C@@H]1CN2CCC1CC2)N1CCc2ccccc2[C@@H]1c1ccc(F)cc1F` [Compound 1012], the EC50 is, setting by setting: under setting [3], 0.44 µM; under setting [4], 0.25 µM.

`O=C(O[C@@H]1CN2CCC1CC2)N1CCc2ccccc2[C@@H]1c1ccc(OC2CC2)cc1` [Compound 1022]: the EC50 under setting [1] is greater than 10 µM and the EC50 under setting [2] is greater than 10 µM.

`O=C(C[C@@H]1CN2CCC1CC2)N1CCc2ccccc2[C@H]1c1ccc(F)c(F)c1` [Compound 1065]: the EC50 reads like this: under setting [6], greater than 10 µM; under setting [5], greater than 10 µM.

Consider `O=C(C[C@@H]1CN2CCC1CC2)N1CCc2ccccc2[C@@H]1c1ccc(OC2CC2)cc1` [Compound 1068], for which the EC50 under setting [6] is 6.14 µM and the EC50 under setting [5] is greater than 10 µM.

`O=C(N[C@@H]1CN2CCC1CC2)N1CCc2ccccc2[C@H]1c1ccc2cncn2c1` [Compound 1112]: the EC50 is greater than 10 µM under setting [6] and greater than 10 µM under setting [5].

Take `O=C(C[C@@H]1CN2CCC1CC2)N1CCc2ccccc2[C@H]1c1cccc(F)c1` [Compound 1063]: the EC50 under setting [6] was greater than 10 µM and the EC50 under setting [5] was greater than 10 µM.

As to `O=C(N[C@@H]1CN2CCC1CC2)N1CCc2ccccc2[C@@H]1c1ccncc1` [Compound 1077], the EC50 under setting [6] was greater than 10 µM.

For `O=C(C[C@@H]1CN2CCC1CC2)N1CCc2ccccc2[C@@H]1c1ccc(F)cc1` [Compound 1058], the EC50 under setting [1] was determined as 0.22 µM.

`O=C1CCCN1c1ccc([C@H]2c3ccccc3CCN2C(=O)O[C@@H]2CN3CCC2CC3)cc1` [Compound 1016]: the EC50 runs as follows: under setting [1], greater than 10 µM; under setting [2], greater than 10 µM.

Regarding `O=C(N[C@@H]1CN2CCC1CC2)N1CCc2ccccc2[C@@H]1c1ccc(OC2CC2)cc1` [Compound 1115], the EC50 under setting [6] is 3.95 µM and the EC50 under setting [5] came to 1.18 µM.

Turning to `O=C(N[C@@H]1CN2CCC1CC2)N1CCc2ccccc2[C@H]1c1ccn2ccnc2c1` [Compound 1106], the EC50 under setting [6] was greater than 10 µM and the EC50 under setting [5] is greater than 10 µM.

Turning to `O=C(C[C@@H]1CN2CCC1CC2)N1CCc2ccccc2[C@@H]1c1ccccc1` [Compound 1048], the EC50 under setting [6] came out at 0.88 µM.

Turning to `O=C1CCC([C@H]2c3ccccc3CCN2C(=O)O[C@@H]2CN3CCC2CC3)CN1` (stereo partly drawn) [Compound 1026], the half-maximal effective concentration (EC50) runs as follows: under setting [3], greater than 10 µM; under setting [4], greater than 10 µM.

In the case of `O=C(N[C@@H]1CN2CCC1CC2)N1CCc2ccccc2[C@@H]1c1ccc(N2CCCC2)cc1` [Compound 1103], the EC50 under setting [6] is greater than 10 µM.

`O=C1CCCN1c1ccc([C@H]2c3ccccc3CCN2C(=O)C[C@@H]2CN3CCC2CC3)cc1` [Compound 1066]: the EC50 under setting [6] was greater than 10 µM and the EC50 under setting [5] is greater than 10 µM.

For `O=C(N[C@@H]1CN2CCC1CC2)N1CCc2ccccc2[C@@H]1c1ccc(-n2cnnc2)cc1` [Compound 1113], the EC50 is, setting by setting: under setting [6], 3.59 µM; under setting [5], greater than 10 µM.

In the case of `COc1ccc([C@@H]2c3ccccc3CCN2C(=O)O[C@@H]2CN3CCC2CC3)cc1F` [Compound 1039], the EC50 under setting [4] is greater than 10 µM.

Consider `O=S(=O)(C[C@H]1CN2CCC1CC2)N1CCc2ccccc2[C@@H]1c1ccc(F)cc1` [Compound 1137], for which the concentration giving a half-maximal response (EC50) under setting [5] amounted to 4.41 µM.

In the case of `O=C(O[C@@H]1CN2CCC1CC2)N1CCc2ccccc2[C@H]1c1ccc(-n2ccnc2)cc1` [Compound 1007], the EC50 under setting [1] was greater than 10 µM.

As for `O=C(O[C@@H]1CN2CCC1CC2)N1CCc2ccccc2[C@H]1c1ccc(OC(F)(F)F)cc1` [Compound 1129], the EC50 under setting [2] is 4.35 µM.

With `O=C(O[C@@H]1CN2CCC1CC2)N1CCc2ccccc2[C@H]1CS(=O)(=O)c1ccccc1` [Compound 1031], the concentration for a half-maximal effect (EC50) reads like this: under setting [1], greater than 10 µM; under setting [2], greater than 10 µM.

For the molecule `O=C(N[C@@H]1CN2CCC1CC2)N1CCc2ccccc2[C@H]1c1ccc(OC2CC2)cc1` [Compound 1116], the EC50 under setting [6] is 4.47 µM and the 50% effective concentration (EC50) under setting [5] is greater than 10 µM.

With `O=C(N[C@@H]1CN2CCC1CC2)N1CCc2ccccc2[C@H]1c1ccc(O)cc1` [Compound 1094], the EC50 under setting [6] is 1.29 µM.

`O=C(C[C@@H]1CN2CCC1CC2)N1CCc2ccccc2[C@@H]1c1ccc(F)c(F)c1` [Compound 1064]: the concentration for a half-maximal effect (EC50) reads like this: under setting [6], 2.71 µM; under setting [5], 1.83 µM.

Take `O=S(=O)(C[C@@H]1CN2CCC1CC2)N1CCc2ccccc2[C@@H]1c1ccc(F)cc1` [Compound 1136]: under setting [5], the EC50 amounted to 1.7 µM.

`O=S(=O)(C[C@H]1CN2CCC1CC2)N1CCc2ccccc2[C@@H]1c1ccccc1` [Compound 1142]: the EC50 under setting [5] was greater than 10 µM.

Turning to `COc1ccc([C@H]2c3ccccc3CCN2C(=O)O[C@@H]2CN3CCC2CC3)cc1` [Compound 1024], the EC50 runs as follows: under setting [3], 2.87 µM; under setting [4], 2.91 µM.

As for `O=C1CCCN1c1ccc([C@H]2c3ccccc3CCN2C(=O)N[C@@H]2CN3CCC2CC3)cc1` [Compound 1119], the EC50 is greater than 10 µM under setting [6] and greater than 10 µM under setting [5].

In the case of `CC1(C)C(OC(=O)N2CCc3ccccc3[C@H]2c2cccc(F)c2F)C2CCN1CC2` (stereo partly drawn) [Compound 1149], the EC50 under setting [2] came out at 0.43 µM.

Turning to `COc1ccc([C@@H]2c3ccccc3CCN2C(=O)N[C@@H]2CN3CCC2CC3)cc1` [Compound 1074], the half-maximal effective concentration (EC50) under setting [6] was greater than 10 µM.

As for `O=C(N[C@@H]1CN2CCC1CC2)N1CCc2ccccc2[C@H]1c1cnc2nccn2c1` [Compound 1118], the half-maximal effective concentration (EC50) by setting is: under setting [6], greater than 10 µM; under setting [5], greater than 10 µM.

With `O=C(O[C@@H]1CN2CCC1CC2)N1CCc2ccccc2[C@H]1c1ccc(F)c(F)c1` [Compound 1011], the EC50 reads like this: under setting [1], 7.14 µM; under setting [2], 8.74 µM.

Turning to `O=C(O[C@@H]1CN2CCC1CC2)N1CCc2ccccc2[C@@H]1c1cc2ccccc2s1` [Compound 1036], the EC50 was greater than 3.16 µM under setting [3] and greater than 10 µM under setting [4].

With `O=C1CCCN1c1ccc([C@@H]2c3ccccc3CCN2C(=O)N[C@@H]2CN3CCC2CC3)cc1` [Compound 1120], the EC50 runs as follows: under setting [6], greater than 10 µM; under setting [5], greater than 10 µM.

For the molecule `O=C(O[C@@H]1CN2CCC1CC2)N1CCc2ccccc2[C@@H]1c1ccc(OC(F)(F)F)cc1` [Compound 1128], under setting [2], the EC50 was found to be 2.6 µM.

`O=C(N[C@@H]1CN2CCC1CC2)N1CCc2cccnc2[C@@H]1c1ccc(Cl)cc1` [Compound 1121]: the EC50 is greater than 10 µM under setting [6] and 5.22 µM under setting [5].

Regarding `O=C(N[C@@H]1CN2CCC1CC2)N1CCc2ccccc2[C@H]1c1ccn2cncc2c1` [Compound 1098], under setting [6], the half-maximal effective concentration (EC50) is greater than 10 µM.

As for `O=C(N[C@@H]1CN2CCC1CC2)N1CCc2ccccc2[C@@H]1c1ccc(F)cc1` [Compound 1070], the EC50 by setting is: under setting [1], 0.18 µM; under setting [2], 0.26 µM.

Turning to `O=C(O[C@@H]1CN2CCC1CC2)N1CCc2ccccc2[C@H]1c1cccc(F)c1` [Compound 1021], the EC50 under setting [3] is greater than 10 µM and the EC50 under setting [4] turned out to be 1.03 µM.

Consider `COc1ccc([C@H]2c3ccccc3CCN2C(=O)C[C@@H]2CN3CCC2CC3)cc1` [Compound 1056], for which the EC50 under setting [6] worked out at 3.72 µM.

Consider `O=C(O[C@@H]1CN2CCC1CC2)N1CCc2ccccc2[C@H]1c1ccnc(O)c1` [Compound 1003], for which the EC50 under setting [3] was greater than 10 µM.

For the origin of these results see patent US20210163471A1, “PROGRANULIN MODULATORS AND METHODS OF USING THE SAME” (ARKUDA THERAPEUTICS, priority 2017, published 2021).
